Measurements reported in patent publication US11806342B2, “Diiodohydroxyquinoline for the treatment of clostridium difficile infection” (Purdue Research Foundation, priority 2019, dated 2023).
≈ marks a conversion by molar mass, not a printed value.

Columns and labels:
C. difficile P8 = assay: MIC and MBC, broth microdilution; assay type: cell-based, Clostridium difficile; conditions: Clostridioides difficile, C. difficile P8
Experimental: (§1) MIC50 and MIC90 are the minimum concentration of each agent that inhibited growth of 50% and 90% of the tested isolates, respectively. The minimum bactericidal concentration (MBC) of these drugs was tested by plating 5 μL from wells with no growth onto BHIS agar plates. The MBC was categorized as the lowest concentration that reduced bacterial growth by 99.9% MIC50 and MIC90 are the minimum concentration of each agent that inhibited the growth of 50% and 90% of the tested isolates, respectively. The minimum bactericidal concentration (MBC) of these drugs was tested by plating 5 μL from wells with no growth onto BHIS agar plates. The MBC was categorized as the lowest concentration that reduced bacterial growth by 99.9% [29-31].

C. difficile HM-89 = assay: MIC and MBC, broth microdilution; assay type: cell-based, Clostridium difficile; conditions: Clostridioides difficile, HM89, C. difficile HM-89
Experimental: as §1

C. difficile I4 = assay: MIC and MBC, broth microdilution; assay type: cell-based, Clostridium difficile; conditions: Clostridioides difficile, C. difficile I4
Experimental: as §1

C. difficile ATCC 43598 = assay: MIC and MBC, broth microdilution; assay type: cell-based, Clostridium difficile; conditions: Clostridioides difficile, ATCC43598, C. difficile ATCC 43598
Experimental: as §1

C. difficile P11 = assay: MIC and MBC, broth microdilution; assay type: cell-based, Clostridium difficile; conditions: Clostridioides difficile, C. difficile P11; for MBC: read-out: MBC
Experimental: as §1

C. difficile I2 = assay: MIC and MBC, broth microdilution; assay type: cell-based, Clostridium difficile; conditions: Clostridioides difficile, C. difficile I2
Experimental: as §1

[1] = system: C. difficile ATCC BAA-1870; assay: MIC and MBC, broth microdilution; assay type: cell-based, Clostridium difficile; conditions: Clostridioides difficile, ATCCBAA1870, C. difficile ATCC BAA-1870
Experimental: as §1

C. difficile P2 = assay: MIC and MBC, broth microdilution; assay type: cell-based, Clostridium difficile; conditions: Clostridioides difficile, C. difficile P2; for MBC: read-out: MBC
Experimental: as §1

C. difficile P7 = assay: MIC and MBC, broth microdilution; assay type: cell-based, Clostridium difficile; conditions: Clostridioides difficile, C. difficile P7
Experimental: as §1

C. difficile NR-49284 = assay: MIC and MBC, broth microdilution; assay type: cell-based, Clostridium difficile; conditions: Clostridioides difficile, NR49284, C. difficile NR-49284
Experimental: as §1

C. difficile NR-49290 = assay: MIC and MBC, broth microdilution; assay type: cell-based, Clostridium difficile; conditions: Clostridioides difficile, NR49290, C. difficile NR-49290; for MBC: read-out: MBC
Experimental: as §1

C. difficile NR-49286 = assay: MIC and MBC, broth microdilution; assay type: cell-based, Clostridium difficile; conditions: Clostridioides difficile, NR49286, C. difficile NR-49286
Experimental: as §1

C. difficile P13 = assay: MIC and MBC, broth microdilution; assay type: cell-based, Clostridium difficile; conditions: Clostridioides difficile, C. difficile P13; for MBC: read-out: MBC
Experimental: as §1

C. difficile P24 = assay: MIC and MBC, broth microdilution; assay type: cell-based, Clostridium difficile; conditions: Clostridioides difficile, C. difficile P24; for MBC: read-out: MBC
Experimental: as §1

C. difficile ATCC 9689 = assay: MIC and MBC, broth microdilution; assay type: cell-based, Clostridium difficile; conditions: Clostridioides difficile, ATCC9689, C. difficile ATCC 9689; for MBC: read-out: MBC
Experimental: as §1

C. difficile ATCC 700057 = assay: MIC and MBC, broth microdilution; assay type: cell-based, Clostridium difficile; conditions: Clostridioides difficile, ATCC700057, C. difficile ATCC 700057
Experimental: as §1

C. difficile I1 = assay: MIC and MBC, broth microdilution; assay type: cell-based, Clostridium difficile; conditions: Clostridioides difficile, C. difficile I1
Experimental: as §1

C. difficile NR-49281 = assay: MIC and MBC, broth microdilution; assay type: cell-based, Clostridium difficile; conditions: Clostridioides difficile, NR49281, C. difficile NR-49281
Experimental: as §1

C. difficile P1 = assay: MIC and MBC, broth microdilution; assay type: cell-based, Clostridium difficile; conditions: Clostridioides difficile, C. difficile P1
Experimental: as §1

C. difficile NR-49277 = assay: MIC and MBC, broth microdilution; assay type: cell-based, Clostridium difficile; conditions: Clostridioides difficile, NR49277, C. difficile NR-49277
Experimental: as §1

[2] = system: Bacteroides fragilis HM-714; assay: MIC against normal gut microflora, broth microdilution; assay type: cell-based; conditions: HM714; Bacteroides fragilis HM-714; read-out: MIC
Summary of the method: (§2)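 A 0.5 McFarland bacterial suspension is diluted […] to approximately 5×10^5 CFU/mL. Drugs are then added and serially diluted along the plates.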

[3] = system: Bifidobacterium adolescentis HM-633; assay: as above; assay type: cell-based; conditions: HM633; Bifidobacterium adolescentis HM-633; read-out: MIC
Summary of the method: as §2

Bacteroides dorei HM-719 = assay: as above; assay type: cell-based; conditions: Phocaeicola dorei, HM719; Bacteroides dorei HM-719; read-out: MIC
Summary of the method: as §2

[4] = system: Lactobacillus reuteri HM-102; assay: as above; assay type: cell-based; conditions: Limosilactobacillus reuteri, HM102; Lactobacillus reuteri HM-102; read-out: MIC
Summary of the method: as §2

Bacteroides dorei HM-29 = assay: as above; assay type: cell-based; conditions: Phocaeicola dorei, HM29; Bacteroides dorei HM-29; read-out: MIC
Summary of the method: as §2

[5] = system: Bifidobacterium longum HM-845; assay: as above; assay type: cell-based; conditions: HM845; Bifidobacterium longum HM-845; read-out: MIC
Summary of the method: as §2

[6] = system: Bacteroides fragilis HM-710; assay: as above; assay type: cell-based; conditions: HM710; Bacteroides fragilis HM-710; read-out: MIC
Summary of the method: as §2

[7] = system: Lactobacillus casei ATCC 334; assay: as above; assay type: cell-based; conditions: Lacticaseibacillus casei, ATCC334; Lactobacillus casei ATCC 334; read-out: MIC
Summary of the method: as §2

SMILES: CCc1c(Cl)c(O)c(Cl)c(O)c1C(=O)O[C@H]1[C@H](O)[C@H](OC)[C@H](OC/C2=C\C=C\C[C@H](O)/C(C)=C/[C@H](CC)[C@@H](O[C@@H]3OC(C)(C)[C@@H](OC(=O)C(C)C)[C@H](O)[C@@H]3O)/C(C)=C/C(C)=C/C[C@@H]([C@@H](C)O)OC2=O)O[C@@H]1C [Fidaxomicin, fidaxomicin]
- MBC (C. difficile P8; read-out: MBC): 0.015 µg/mL (≈ 0.0142 µM)
- MIC (C. difficile P8; read-out: MIC): 0.015 µg/mL (≈ 0.0142 µM)
- MBC (C. difficile HM-89; read-out: MBC): 0.03 µg/mL (≈ 0.0284 µM)
- MIC (C. difficile HM-89; read-out: MIC): 0.03 µg/mL (≈ 0.0284 µM)
- MBC (C. difficile I4; read-out: MBC): 0.015 µg/mL (≈ 0.0142 µM)
- MIC (C. difficile I4; read-out: MIC): 0.015 µg/mL (≈ 0.0142 µM)
- MBC (C. difficile ATCC 43598; read-out: MBC): 0.015 µg/mL (≈ 0.0142 µM)
- MIC (C. difficile ATCC 43598; read-out: MIC): 0.015 µg/mL (≈ 0.0142 µM)
- MBC (C. difficile P11): 0.03 µg/mL (≈ 0.0284 µM)
- MIC (C. difficile P11; read-out: MIC): 0.03 µg/mL (≈ 0.0284 µM)
- MBC (C. difficile I2; read-out: MBC): 0.007 µg/mL (≈ 0.00662 µM)
- MIC (C. difficile I2; read-out: MIC): 0.007 µg/mL (≈ 0.00662 µM)
- MBC ([1]; read-out: MBC): 0.03 µg/mL (≈ 0.0284 µM)
- MIC ([1]; read-out: MIC): 0.03 µg/mL (≈ 0.0284 µM)
- MBC (C. difficile P2): 0.03 µg/mL (≈ 0.0284 µM)
- MIC (C. difficile P2; read-out: MIC): 0.03 µg/mL (≈ 0.0284 µM)
- MBC (C. difficile P7; read-out: MBC): 0.06 µg/mL (≈ 0.0567 µM)
- MIC (C. difficile P7; read-out: MIC): 0.06 µg/mL (≈ 0.0567 µM)
- MBC (C. difficile NR-49284; read-out: MBC): 0.015 µg/mL (≈ 0.0142 µM)
- MIC (C. difficile NR-49284; read-out: MIC): 0.015 µg/mL (≈ 0.0142 µM)
- MBC (C. difficile NR-49290): 0.015 µg/mL (≈ 0.0142 µM)
- MIC (C. difficile NR-49290; read-out: MIC): 0.015 µg/mL (≈ 0.0142 µM)
- MBC (C. difficile NR-49286; read-out: MBC): 0.015 µg/mL (≈ 0.0142 µM)
- MIC (C. difficile NR-49286; read-out: MIC): 0.007 µg/mL (≈ 0.00662 µM)
- MBC (C. difficile P13): 0.015 µg/mL (≈ 0.0142 µM)
- MIC (C. difficile P13; read-out: MIC): 0.015 µg/mL (≈ 0.0142 µM)
- MBC (C. difficile P24): 0.03 µg/mL (≈ 0.0284 µM)
- MIC (C. difficile P24; read-out: MIC): 0.015 µg/mL (≈ 0.0142 µM)
- MBC (C. difficile ATCC 9689): 0.03 µg/mL (≈ 0.0284 µM)
- MIC (C. difficile ATCC 9689; read-out: MIC): 0.03 µg/mL (≈ 0.0284 µM)
- MBC (C. difficile ATCC 700057; read-out: MBC): 0.007 µg/mL (≈ 0.00662 µM)
- MIC (C. difficile ATCC 700057; read-out: MIC): 0.007 µg/mL (≈ 0.00662 µM)
- MBC (C. difficile I1; read-out: MBC): 0.007 µg/mL (≈ 0.00662 µM)
- MIC (C. difficile I1; read-out: MIC): 0.007 µg/mL (≈ 0.00662 µM)
- MBC (C. difficile NR-49281; read-out: MBC): 0.007 µg/mL (≈ 0.00662 µM)
- MIC (C. difficile NR-49281; read-out: MIC): 0.007 µg/mL (≈ 0.00662 µM)
- MBC (C. difficile P1; read-out: MBC): 0.007 µg/mL (≈ 0.00662 µM)
- MIC (C. difficile P1; read-out: MIC): 0.003 µg/mL (≈ 0.00284 µM)
- MBC (C. difficile NR-49277; read-out: MBC): 0.03 µg/mL (≈ 0.0284 µM)
- MIC (C. difficile NR-49277; read-out: MIC): 0.03 µg/mL (≈ 0.0284 µM)
- MIC [2]: > 128 µg/mL
- MIC [3]: ≤ 1 µg/mL
- MIC (Bacteroides dorei HM-719): 128 µg/mL (≈ 121 µM)
- MIC [4]: > 128 µg/mL
- MIC (Bacteroides dorei HM-29): > 128 µg/mL
- MIC [5]: ≤ 1 µg/mL
- MIC [6]: > 128 µg/mL
- MIC [7]: > 128 µg/mL

SMILES: Cc1ncc([N+](=O)[O-])n1CCO [Metronidazole, metronidazole]
- MBC (C. difficile P11): 0.25 µg/mL (≈ 1.46 µM)
- MBC (C. difficile P2): 0.25 µg/mL (≈ 1.46 µM)
- MBC (C. difficile NR-49290): 0.25 µg/mL (≈ 1.46 µM)
- MBC (C. difficile P13): 0.25 µg/mL (≈ 1.46 µM)
- MBC (C. difficile P24): 0.25 µg/mL (≈ 1.46 µM)
- MBC (C. difficile ATCC 9689): 0.25 µg/mL (≈ 1.46 µM)
- MIC [2]: ≤ 1 µg/mL
- MIC [3]: ≤ 1 µg/mL
- MIC (Bacteroides dorei HM-719): ≤ 1 µg/mL
- MIC [4]: > 128 µg/mL
- MIC (Bacteroides dorei HM-29): ≤ 1 µg/mL
- MIC [5]: ≤ 1 µg/mL
- MIC [6]: 2 µg/mL (≈ 11.7 µM)
- MIC [7]: 16 µg/mL (≈ 93.5 µM)
